Experimental findings from ChEMBL document CHEMBL1201862, “PubChem BioAssay data set” (2004) are described below.

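Exposure lasted 48 hours, with cells grown in 96-well plates and compounds tested at five concentrations. GI50 marks 50% less growth.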 Calls of active or inactive are those of the source. Rule as the data show it: active = GI50 up to about 1.1 µM and inactive = higher.

Among the test systems are 786-0; DLD-1; DU-145; HCT-116; HCT-15; HT-29; K562; LXFL 529; M19-MEL; MCF7; NCI-H226; NCI-H460; OVCAR-3; OVCAR-4; PC-3; SF-295; SNB-78; T47D; U-251; UACC-257.
Holding throughout (test): NCI tumour cell line growth inhibition, 48 h

In the case of `O=C(CC(=O)c1ccccc1NC1=Cc2ccccc2C(=O)C1=O)C(=O)NC1=C(Cl)C(=O)c2ccccc2C1=O`, the GI50 in the assay on 786-0 was 2.48 µM (inactive); in the assay on DLD-1 it was 2.38 µM (inactive); with DU-145 it was 5.71 µM (inactive); with HCT-116, 2.31 µM (inactive); with HCT-15 it was 1.67 µM; in the assay with HT-29, 5.26 µM (inactive). Moreover, the GI50 in the assay with K562 was 1.29 µM (inactive); with LXFL 529, 2.46 µM (inactive); in the assay with M19-MEL, 0.225 µM (active); in the assay with MCF7 it was 0.804 µM (active); with NCI-H226, 7.52 µM (inactive); in the assay on NCI-H460 it was 3.04 µM (inactive). Also, the GI50 in the assay with OVCAR-3 was 1.51 µM (inactive); in the assay on OVCAR-4, 3.36 µM (inactive); in the assay with PC-3, 2.23 µM (inactive); in the assay with SF-295, 3.87 µM (inactive); in the assay with SNB-78 it was 2.16 µM (inactive); with T47D it was 10.9 µM (inactive). Besides, the GI50 was 3.04 µM (inactive) in the assay with U-251 and 2.04 µM (inactive) in the assay on UACC-257.
As to `COC(=O)CCC(=O)Nc1cc(Cl)ccc1Cl`, the GI50 with 786-0 was > 100 µM (inactive); with DLD-1, > 100 µM (inactive); with HCT-116 it was > 100 µM (inactive); with HCT-15, greater than 100 µM; in the assay with HT-29, > 100 µM (inactive); in the assay with K562 it was > 100 µM (inactive). For the same compound, the GI50 with LXFL 529, in the assay with M19-MEL, with NCI-H226, in the assay with NCI-H460, in the assay on OVCAR-3 and with OVCAR-4 was > 100 µM (inactive) throughout. Also, the GI50 in the assay on SF-295, in the assay with SNB-78, in the assay with U-251 and in the assay on UACC-257 was > 100 µM (inactive) throughout.
On to `CS(=O)(=O)OCCN(CCOS(C)(=O)=O)c1ccc(C=O)cc1`, for which the GI50 in the assay with 786-0 was 0.365 µM (active); in the assay with DLD-1, 18.5 µM (inactive); in the assay with DU-145 it was 0.505 µM (active); in the assay with HCT-116, 31.4 µM (inactive); in the assay with HCT-15, 9.84 µM; in the assay with HT-29 it was 3.96 µM (inactive). The GI50 with K562 is 20.1 µM (inactive); with LXFL 529, 18.1 µM (inactive); in the assay with M19-MEL, 12.6 µM (inactive); with MCF7 it was 4.7 µM (inactive); with NCI-H226, 1.84 µM (inactive); with NCI-H460, 0.0518 µM (active). The GI50 in the assay on OVCAR-3 was 5.12 µM (inactive); in the assay with OVCAR-4, 13 µM (inactive); in the assay with PC-3, 19.4 µM (inactive); with SF-295, 0.774 µM (active); in the assay on SNB-78 it was 27.2 µM (inactive); with T47D it was 5.92 µM (inactive). The GI50 in the assay on U-251 was 8.07 µM (inactive); in the assay on UACC-257, 8.32 µM (inactive).
